Assay results as given in US20140364454A1, “METAL-CHELATING COMPOUNDS HAVING AT LEAST ONE POLYAMINO CHAIN” (UNIVERSITE DE RENNES I, priority 2011, published 2014).
Where two headings read alike, the source gives them in different places.

Key:
[1] = Calcein test: shift of iron(III) complexated with calcein; format: physicochemical; conditions: pH 7.4
Procedure: The Quilamines HQ1-34, HQ1-344, HQ1-343, HQ1-33, HQ1-333, HQ1-44, HQ1-43, HQ1-444, HQ1-443 according to the invention were synthesized and tested. For each Quilamine, its capacity to shift iron (III) complexated with calcein was tested. Calcein is a fluorescent molecule which has a pFe3+ value of 20.3 with pH 7.4 close to the value measured for ligands of low molecular weight present in human or animal cells and complexating the labile iron pool, such as citrate which has a pFe^3+ value of 19.3 with pH of 7.4 (LIP). The fluorescence of calcein is detected on a microplate, in a concentration of 0.1 micromole per liter, in solution in a HEPES buffer (4-(2-hydroxyethyl)-1-piperazine ethane sulfonic acid) with pH 7.4, in a Fusion (Packard) type a microplate fluorescence reader, under excitation at 450 nanometers and analysis of the fluorescence emission at 515 nanometers. The fluorescence of calcein is extinguished in the presence of iron(III) in the form of hydrochloride (chloride) with a concentration of 1 micromole per liter. The addition of Quilamine in different concentrations ranging from 0.01 to 40 micromoles per liter prompts the shifting of iron(III) complexated with calcein towards Quilamine, resulting in a restoration of the fluorescence of the calcein. The dose-effect curves expressing the percentage of restoration of fluorescence of calcein (relative to the fluorescence of the free molecule in the absence of iron), for each Quilamine concentration, makes it possible to deduce the Quilamine concentration prompting the 50% shift of Fe(III) from calcein and the restoration of its associated fluorescence (CE50). These concentration values CE50 are inversely proportional to the chelating capacity of the chelators and the aptitude to mobilize iron from the LIP of the organism.
Comparatively, measurements were made, under the same conditions, of the efficacy in shifting iron(III) complexated with calcein of the two prior-art chelators, 8-hydroxyquinoline and O-trensox, the latter being currently considered to be the chelator having the greatest affinity for iron.

Caco-2 cells [2] = experiment: LDH release of Caco-2 cells; format: cell-based, human; conditions: for % LDH/control 10 μM: Caco-2 J4, 10 μM; for % LDH/control 100 μM: Caco-2 J4, 100 μM
Procedure: (§1) The action of Quilamines on the cell viability was analyzed on enterocyte cells of the Caco-2 tumor cell line derived from human colon carcinoma and compared with the action of ICL670 in the presence or absence of exogenous iron, after activation (DFMO) or competitive inhibition by spermidine, of the PTS. The operating conditions used are identical to those used for CHO/CHO-MG and HepG2 cells.
As in the case of the other cell lines in proliferative phase presented here above, the dose-effect curves of the action of the Quilamines on the number of viable cells (number of nuclei) are biphase curves with a cytostatic constituent for concentration values of below 30 micromoles per liter and a cytotoxic constituent with release of LDH for concentration values above 30 micromoles per liter. Only this second cytotoxic constituent is observed when the cells of the Caco-2 cell line are treated after confluence (stopping of the proliferation).

HepG2 cells = experiment: Anti-proliferative effect on HepG2 cells (nuclei count or SDH activity); format: cell-based, human; conditions: 72 h; for IC50: HepG2, absence of exogenous iron, read-out: IC50 associated with the cytostatic effect; for % of HepG2 cells concerned by the anti-proliferative effect: absence of exogenous iron
Excerpt: The majority of the Quilamines, like ICL670, show biphase dose-effect curves in the absence of exogenous iron, with an anti-proliferative constituent for concentration values of 1 to 10 micromoles per liter and a cytotoxic constituent associated with a release of LDH for concentration values of over 10 micromoles per liter. The percentage of HepG2 cells concerned by the anti-proliferative effect and the values of IC50 associated with this cytostatic effect in the absence of exogenous iron were listed in the table 4 below.
The implication of PTS in the cytostatic and cytotoxic action of Quilamines was analyzed in proliferating HepG2 hepatocyte tumor cells after activation of PTS or competitive inhibition of PTS by spermidine, a polyamine naturally present in the organism and most efficaciously captured by the PTS. The conditions of treatment by Quilamines are identical to those described in paragraph III-1.
Inhibiting ornithine decarboxylase (ODC), the key enzyme in the biosynthesis of polyamines, causes a depletion of intra-cell polyamines and an activation of PTS which enables the deficiency to be met. This activation of PTS is done by means of the ODC inhibitor, alpha-difluoromethyl ornithine (DFMO).
The competitive inhibition of PTS by spermidine is prompted by the co-treatment of the cells by the Quilamines in the presence of spermidine, in a concentration of 50 micromoles per liter.

[3] = tested on: wild cell line (CHO) of hamster ovarian cells; experiment: Anti-proliferative effect on CHO cells, counting of cell nuclei (Hoechst 33342); format: cell-based; conditions: 72 h treatment, no exogenous iron; read-out: IC50 CHO
Procedure: The in vitro efficacy of different Quilamines was tested on a wild cell line (CHO) of hamster ovarian cells having PTS and a mutant cell line CHO-MG without PTS. The two cell types CHO and CHO-MG were treated, 24 hours after being seeded in 96-well microplates, by concentrations of different Quilamines ranging from 0.1 to 400 micromoles per liter. The cytostatic (anti-proliferative) effects and cytotoxic effects of Quilamine after 72 hours' treatment of the cells were assessed respectively by counting cell nuclei after DNA marking by the Hoechst 33342 fluorescent intercalant dye and by analysis of membrane damage detected by the dosing of the lactate dehydrogenase activity (LHD) in the supernatants.
The IC50 inhibitor concentration corresponding to the concentration in Quilamines enables the inhibition at 50% of the cell proliferation was deduced from the dose-effect curves of numeration of the nuclei of the living cells on the CHO and CHO-MG cell lines. […] The lower the value of IC50, the greater the efficiency of the anti-proliferative effect of the tested chelators.
A comparison was made of the cytostatic or anti-proliferative action and the cytotoxic action for 72 h of treatment by Quilamine HQ1-44 and 8-hydroxyquinoline and ICL670, on the CHO cell lines in the presence and without the presence of exogenous iron, in the form of Fe(III) citrate in a concentration of 20 micromoles per liter. The results obtained are shown in FIG. 4, FIG. 4A relating to the results on cell viability and FIG. 4B relating to the results on cell toxicity.

Caco-2 cells [4] = experiment: Cell viability of proliferating Caco-2 cells (number of nuclei); format: cell-based, human; conditions: for IC50: no exogenous iron; for Constituent 1 (1-10 μM) % cell / Constituent 2 (10-100 μM) % cell: Caco-2 J4, no exogenous iron
Procedure: as §1
The results for the measurement of the anti-proliferative effect of Quilamines, and of ICL670 on the proliferating cells (cytostatic constituent) when there is no exogenous iron have been listed in the table 4 below.

[5] = tested on: mutant cell line CHO-MG without PTS; experiment: Anti-proliferative effect on CHO-MG cells without PTS, counting of cell nuclei; format: cell-based, hamster; conditions: for IC50: 72 h treatment; for Ratio IC50 (CHO-MG/CHO): selectivity of recognition by the PTS
Excerpt: The IC50 inhibitor concentration corresponding to the concentration in Quilamines enables the inhibition at 50% of the cell proliferation was deduced from the dose-effect curves of numeration of the nuclei of the living cells on the CHO and CHO-MG cell lines. These dose-effect curves are sometimes bi-phase curves as in the case of Quilamine HQ1-44 which has an anti-proliferative constituent (without concomitant release of LDH in supernatant) in the range of concentrations of 0.4 to 3 micromoles per liter and a second cytotoxic constituent accompanied by membrane toxicity expressed by the release of LDH for concentrations of over […]. The lower the value of IC50, the greater the efficiency of the anti-proliferative effect of the tested chelators.
Furthermore, the ratio of the IC50 inhibitor concentrations found for the CHO-MG and the CHO cell lines (Ratio IC50 (CHO-MG/CHO)) was computed for several Quilamines according to the invention. This ratio makes it possible to estimate the selectivity of recognition of the different chelators by the PTS: the higher the ratio, the more clearly is the chelator recognized by the PTS. When this ratio is close to 1, the tested chelator is not recognized or is little recognized by the PTS.

[6] = Potentiometry: stability constants and pFe3+ of the iron complex; format: physicochemical; conditions: pH 7.4
Procedure: The complexation affinity of Quilamine with the metal ion in the organism reflects the chelating capacity or chelating power of Quilamine. This affinity can be assessed by measuring the value of pW corresponding to −log of the concentration in free metal ion W, i.e. non-complexated by the Quilamine for a ratio of respective concentrations of Quilamine (10 micromoles per liter) and metal ion (1 micromole per liter) equal to 10, at 25° C. and pH 7.4. The higher the value of pW, the greater the affinity of Quilamine with metal ion. The affinity of Quilamine with iron in its ferric form (Fe(III)) and its ferrous form (Fe(II)) is measured respectively by pFe^3+ and pFe^2+ at physiological pH (pH=7.4), at 25° C.
Potentiometry measurements were made in thermostated titration cells at 25±0.1° C., using a Metrohm 702 SM Titrino titrator connected to a Metrohm 6.0233.100. The ligand solution is prepared in a concentration of ˜1.5×10^−3 moles per liter, the solution of Fe^3+ is made from FeCl3 and titrated by complexation with a standard solution of EDTA (ethylenediaminetetracetic acid). The sample for the measurement contained approximately 0.03 millimoles per liter of ligand in a volume of 30 ml where the ionic strength is maintained at 0.1 mole per liter in using KNO3 as a support electrolyte. During the titrations, Fe^3+ is added to 0.45 or 0.9 equivalents of ligand. Each titration consists of 150-200 equilibrium points with pH varying from 2.0 to 11.5, and is repeated at least twice. The thermodynamic constants are computed with the software […] and the speciation diagram of the species is done by the Hyss program.

[7] = Caco-2 J4, cytostatic constituent, read-out: Constituent 1 (1-10 μM) IC50
[8] = Caco-2 J4, cytotoxic constituent, read-out: Constituent 2 (10-100 μM) IC50

chelating capacity of HQ1-3 type compared with HQ1-4 type Quilamines [1] | % LDH/control 10 μM (Caco-2 cells [2]) | % LDH/control 100 μM (Caco-2 cells [2]) | IC50 (HepG2 cells) | IC50 (Caco-2 cells [4]; [7]) | IC50 (HepG2 cells; Homo sapiens) | IC50 (Caco-2 cells [4]; Homo sapiens, Caco-2 J4, cytostatic constituent, read-out: Constituent 1 (1-10 μM) IC50) | pFe3+ [6] | Compound | % of HepG2 cells concerned by the anti-proliferative effect (HepG2 cells) | IC50 [3] | IC50 (Caco-2 cells [4]; [8]) | Constituent 1 (1-10 μM) % cell (Caco-2 cells [4]) | Constituent 2 (10-100 μM) % cell (Caco-2 cells [4]) | IC50 [5] | Ratio IC50 (CHO-MG/CHO) [5] | IC50 (Caco-2 cells [4]; Homo sapiens, Caco-2 J4, cytotoxic constituent, read-out: Constituent 2 (10-100 μM) IC50)
– | 88% | 189% | 2.25 µM | 1 µM | – | – | – | NCCCNCCCCNCCCCNCc1ccc2cccc(O)c2n1 [HQ1-443] | 17.5% | 20.2 µM | 35 µM | 5% | 95% | 258 µM | 13 | –
– | 99% | 118% | 4.75 µM | 2 µM | – | – | – | NCCCCNCCCCNCCCCNCc1ccc2cccc(O)c2n1 [HQ1-444] | 10% | 6.3 µM | 75 µM | 60% | 40% | 240 µM | 38 | –
– | – | – | – | – | – | – | 29.5 | O=C(NCCN(CCNC(=O)c1cc(S(=O)(=O)O)c2cccnc2c1O)CCNC(=O)c1cc(S(=O)(=O)O)c2cccnc2c1O)c1cc(S(=O)(=O)O)c2cccnc2c1O [o-Trensox, reference compound] | – | – | – | – | – | – | – | –

Further lines, the compound ahead of its results:

Compound | chelating capacity of HQ1-3 type compared with HQ1-4 type Quilamines [1] | % LDH/control 10 μM (Caco-2 cells [2]) | % LDH/control 100 μM (Caco-2 cells [2]) | IC50 (HepG2 cells) | IC50 (Caco-2 cells [4]; [7]) | IC50 (HepG2 cells; Homo sapiens) | IC50 (Caco-2 cells [4]; Homo sapiens, Caco-2 J4, cytostatic constituent, read-out: Constituent 1 (1-10 μM) IC50) | pFe3+ [6] | % of HepG2 cells concerned by the anti-proliferative effect (HepG2 cells) | IC50 [3] | IC50 (Caco-2 cells [4]; [8]) | Constituent 1 (1-10 μM) % cell (Caco-2 cells [4]) | Constituent 2 (10-100 μM) % cell (Caco-2 cells [4]) | IC50 [5] | Ratio IC50 (CHO-MG/CHO) [5] | IC50 (Caco-2 cells [4]; Homo sapiens, Caco-2 J4, cytotoxic constituent, read-out: Constituent 2 (10-100 μM) IC50)
NCCCNCCCNCc1ccc2cccc(O)c2n1 [HQ1-33] | better chelating capacity | 118% | 261% | 1.5 µM | 0.8 µM | – | – | – | 10% | 5.7 µM | 37 µM | 40% | 60% | 118 µM | 21 | –
NCCCCNCCCNCc1ccc2cccc(O)c2n1 [HQ1-34] | better chelating capacity | 100% | 229% | 1.75 µM | 1 µM | – | – | – | 5% | – | 45 µM | 20% | 80% | – | – | –
NCCCNCCCCNCc1ccc2cccc(O)c2n1 [HQ1-43] | – | 93% | 240% | 1.75 µM | 1 µM | – | – | – | 10% | – | 30 µM | 7% | 93% | – | – | –
NCCCNCCCNCCCNCc1ccc2cccc(O)c2n1 [HQ1-333] | better chelating capacity | 112% | 169% | 1 µM | 3 µM | – | – | – | 12.5% | 15.1 µM | 60 µM | 20% | 80% | 277 µM | 18 | –
NCCCNCCCCNCCCNCc1ccc2cccc(O)c2n1 [HQ1-343] | better chelating capacity | 89% | 255% | 2.15 µM | 2 µM | – | – | – | 12.5% | – | 40 µM | 30% | 70% | – | – | –
NCCCCNCCCCNCCCNCc1ccc2cccc(O)c2n1 [HQ1-344] | better chelating capacity | 95% | 120% | – | – | 1.75 µM | 3 µM | – | 10% | – | – | 22% | 78% | – | – | 75 µM
